Test results as given in US20240140986A1, “SYNTHETIC URSOLIC ACID DERIVATIVES AND METHODS OF USE THEREOF” (REATA PHARMACEUTICALS, INC., priority 2021, published 2024).
Like-named read-outs stand apart in the source and are kept apart here.

Legend:
[1] = test system: IFNγ-induced NO production in RAW 264.7 cells; experiment: Nitric Oxide Suppression Assay (IFNγ-induced NO, Griess nitrite readout); format: cell-based, mouse; details: for IC50: Mus musculus; for Avg NO IC50 Relative to RTA402 (fold): Table 2, ratio to RTA402
In short: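 RAW 264.7 mouse macrophages in RPMI 1640 with 0.5% FBS were pretreated 2 h with compound (0.1% DMSO final), then stimulated with 20 ng/mL IFNγ for 24 h at 37° C. Supernatant nitrite was read by Griess absorbance at 525 nm against a nitrite standard curve, normalized to DMSO-IFNγ wells; IC50 from curve fit. Viability by WST-1.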

[2] = test system: Nrf2 / ARE-dependent luciferase in AREc32 reporter cell line; experiment: AREc32 luciferase reporter activation (Nrf2 induction); format: cell-based, human; details: for EC (2-fold): Homo sapiens, Arec32; for Relative Avg AREc32 EC2X Relative to RTA402 (fold): ratio to RTA402
In short: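 EC2X is the concentration raising luminescence 2-fold above DMSO-treated cells, from a nonlinear-regression dose–response fit. Compounds (0.03–1000 nM) were applied for nineteen hours, starting one day after seeding 20,000 reporter cells per well. Luciferase was read with One-Glo reagent.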

[3] = RAW264.7, Table 2, RAW 264.7 cells, 2 h pretreatment, 20 ng/mL interferon gamma 24 h, read-out: Avg NO IC50 (nM) (Mean ± SD)
[4] = Table 2, concentration increasing luminescence 2-fold above vehicle, 19 h treatment, read-out: Avg AREc32 EC2X (nM) (Mean ± SD)

| SMILES | IC50 [1, 3] [nM] | IC50 ([1]; RAW264.7, Table 3, ursolic acid derivatives, read-out: Avg NO IC50 (nM) (Mean ± SD)) | Avg NO IC50 Relative to RTA402 (fold) [1] [fold] | IC50 ([1]; RAW264.7, Table 3, oleanolic acid derivative analogs, read-out: Avg NO IC50) [nM] | EC (2-fold) [2, 4] [nM] | EC (2-fold) ([2]; Table 3, ursolic acid derivatives, read-out: Avg ARE EC-2X (nM) (Mean ± SD)) | Relative Avg AREc32 EC2X Relative to RTA402 (fold) ([2]; Table 2) | EC (2-fold) ([2]; Table 3, oleanolic acid derivative analogs, read-out: Avg ARE EC-2X) [nM] |
| --- | --- | --- | --- | --- | --- | --- | --- | --- |
| C[C@@H]1[C@H]2[C@H]3C(=O)C=C4[C@@]5(C)C=C(C#N)C(=O)C(C)(C)[C@@H]5CC[C@@]4(C)[C@]3(C)CC[C@@]2(CN2CCC2=O)CC[C@H]1C [Compound T14] | 2.4 ± 1.2 | 2.4 ± 1.2 | 1.27 ± 0.31 |  | 3.91 ± 0.52 | 3.91 ± 0.52 | 0.349 ± 0.018 |  |
| CC(=O)OCCNC[C@]12CC[C@@H](C)[C@H](C)[C@H]1[C@H]1C(=O)C=C3[C@@]4(C)C=C(C#N)C(=O)C(C)(C)[C@@H]4CC[C@@]3(C)[C@]1(C)CC2 [Compound T43] | 15.9 ± 7 |  | 5.93 ± 3.56 |  | 10.1 ± 1 |  | 0.8 ± 0.1 |  |
| C[C@@H]1[C@H]2[C@H]3C(=O)C=C4[C@@]5(C)C=C(C#N)C(=O)C(C)(C)[C@@H]5CC[C@@]4(C)[C@]3(C)CC[C@@]2(CN(C)C(=O)C(F)F)CC[C@H]1C [Compound T39] | 10.4 ± 2.6 |  | 3.38 ± 0.68 |  | 9.58 ± 2.31 |  | 0.799 ± 0.095 |  |
| C[C@@H]1[C@H]2[C@H]3C(=O)C=C4[C@@]5(C)C=C(C#N)C(=O)C(C)(C)[C@@H]5CC[C@@]4(C)[C@]3(C)CC[C@@]2(CN2C(=O)CCC2=O)CC[C@H]1C [Compound T75] | 3.23 ± 0.65 |  | 1.46 ± 0.46 |  | 2.47 ± 0.64 |  | 0.242 ± 0.070 |  |

Second part, led by results:

| IC50 [1, 3] [nM] | IC50 ([1]; RAW264.7, Table 3, ursolic acid derivatives, read-out: Avg NO IC50 (nM) (Mean ± SD)) | Avg NO IC50 Relative to RTA402 (fold) [1] [fold] | IC50 ([1]; RAW264.7, Table 3, oleanolic acid derivative analogs, read-out: Avg NO IC50) [nM] | SMILES | EC (2-fold) [2, 4] [nM] | EC (2-fold) ([2]; Table 3, ursolic acid derivatives, read-out: Avg ARE EC-2X (nM) (Mean ± SD)) | Relative Avg AREc32 EC2X Relative to RTA402 (fold) ([2]; Table 2) | EC (2-fold) ([2]; Table 3, oleanolic acid derivative analogs, read-out: Avg ARE EC-2X) [nM] |
| --- | --- | --- | --- | --- | --- | --- | --- | --- |
| 35.8 ± 6.1 |  | 14.80 ± 8.92 |  | C[C@@H]1[C@H]2[C@H]3C(=O)C=C4[C@@]5(C)C=C(C#N)C(=O)C(C)(C)[C@@H]5CC[C@@]4(C)[C@]3(C)CC[C@@]2(n2cccn2)CC[C@H]1C [Compound T64] | 64 ± 7.6 |  | 6.07 ± 0.87 |  |
|  |  |  | 1.2 | CC1(C)CC[C@]2(Cn3cncn3)CC[C@]3(C)[C@H](C(=O)C=C4[C@@]5(C)C=C(C#N)C(=O)C(C)(C)[C@@H]5CC[C@]43C)[C@@H]2C1 [CC47, reference compound] |  |  |  | 10.7 |
| 5.12 ± 1.21 |  | 1.33 ± 0.30 |  | COC(=O)NC[C@]12CC[C@@H](C)[C@H](C)[C@H]1[C@H]1C(=O)C=C3[C@@]4(C)C=C(C#N)C(=O)C(C)(C)[C@@H]4CC[C@@]3(C)[C@]1(C)CC2 [Compound T30] | 3.29 ± 0.61 |  | 0.27 ± 0.06 |  |
| 102 ± 15 |  | 67.7 ± 3.62 |  | COC(=O)[C@]12CC[C@@H](C)[C@H](C)[C@H]1[C@H]1C(=O)C[C@@H]3[C@@]4(C)C=C(C#N)C(=O)C(C)(C)[C@@H]4CC[C@@]3(C)[C@]1(C)CC2 [Compound T101] | 142 ± 29 |  | 15.8 ± 2.1 |  |
